Consider nine molecules from patent publication US20230183292A1, “IMMUNOMODULATORS” (priority 2020, published 2023).

Molecules are shown by their SMILES. Starred links: 1 amine or outer side, 2 acyl side, 3 side chain; linkers in the order of their positions; H or OH if unused. Positions of bridges follow the written chain, without caps; N, C: chain ends. Non-standard residues stand in square brackets, D forms with d. Residues, ends and D or L forms follow the SMILES beside them. *: point of attachment. Chenodeoxycholyl = C[C@H](CCC(=O)*)[C@H]1CC[C@H]2[C@@H]3[C@H](O)C[C@@H]4C[C@H](O)CC[C@]4(C)[C@H]3CC[C@]12C; Cholyl = C[C@H](CCC(=O)*)[C@H]1CC[C@H]2[C@@H]3[C@H](O)C[C@@H]4C[C@H](O)CC[C@]4(C)[C@H]3C[C@H](O)[C@]12C; X14 = C[C@H](CCC(=O)*)[C@H]1CC[C@H]2[C@H]3C(C[C@H](O)[C@]12C)[C@@]1(C)CC[C@@H](O)C[C@H]1C[C@H]3O; X10 = C[C@H](CCC(=O)*)[C@H]1CC[C@H]2[C@@H]3C(=O)C[C@@H]4C[C@H](O)CC[C@]4(C)[C@H]3CC(=O)[C@]12C; X16 = C[C@H](CCC(=O)*)[C@H]1CC[C@H]2[C@@H]3CC(=O)[C@@H]4CC(=O)CC[C@]4(C)[C@H]3CC[C@]12C; X13 = CC(C)CNC(=O)Cn1cc(C[C@H](N[*:1])C(=O)[*:2])c2ccccc21; Trp(1-CH2COOH) = N[C@@H](Cc1cn(CC(=O)O)c2ccccc12)C(=O)O; X31 = CCOC(=O)Cn1cc(C[C@H](N[*:1])C(=O)[*:2])c2ccccc21; Hyp = O=C(O)[C@@H]1C[C@@H](O)CN1; NMeNle = CCCC[C@H](NC)C(=O)O; NMeA = CN[C@@H](C)C(=O)O; Dab = NCC[C@H](N)C(=O)O; Dap = NC[C@H](N)C(=O)O

The target in one assay is T1, PD-1/PD-L1 (Homo sapiens, UniProt Q9NZQ7).
T1 construct: TVMV protease site (C); made in house; host or cells: HEK293T cells
T1 sequence (Q9NZQ7 18-239): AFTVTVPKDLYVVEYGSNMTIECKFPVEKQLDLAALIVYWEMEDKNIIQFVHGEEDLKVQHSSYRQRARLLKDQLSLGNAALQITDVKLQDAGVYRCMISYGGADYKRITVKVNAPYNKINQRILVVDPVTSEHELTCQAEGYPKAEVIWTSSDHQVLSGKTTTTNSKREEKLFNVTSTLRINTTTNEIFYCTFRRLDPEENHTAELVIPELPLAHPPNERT
Nature of the assay: PD-1/PD-L1 Homogenous Time-Resolved Fluorescence (HTRF) binding assay. The settings on record: HTRF IC50, PD-L1-His 10 nM, PD-1-Ig 20 nM. An excerpt:
The ability of the compounds of formula (I) to bind to PD-L1 was investigated using a PD-1/PD-L1 Homogenous Time-Resolved Fluorescence (HTRF) binding assay.
The interaction of PD-1 and PD-L1 can be assessed using soluble, purified preparations of the extracellular domains of the two proteins. The PD-1 and PD-L1 protein extracellular domains were expressed as fusion proteins with detection tags, for PD-1, the tag was the Fc portion of Immunoglobulin (PD-1-Ig) and for PD-L1 it was the 6 histidine motif (PD-L1-His). All binding studies were performed in an HTRF assay buffer consisting of dPBS supplemented with 0.1% […] bovine serum albumin and 0.05% (v/v) Tween-20. For the h/PD-L1-His binding assay, inhibitors were pre-incubated with PD-L1-His (10 nM final) for 15 m in 4 μl of assay buffer, followed by addition of PD-1-Ig (20 nM final) in 1 μl of assay buffer and further incubation for 15 m. HTRF detection was achieved using europium crypate-labeled anti-Ig (1 nM final) and allophycocyanin (APC) labeled anti-His (20 nM final). Antibodies were diluted in HTRF detection buffer and 5 μl was dispensed on top of the binding reaction. The reaction mixture was allowed to equilibrate for 30 minutes and the resulting signal (665 nm/620 nm ratio) was obtained using an EnVision fluorometer. Additional binding assays were established between the human proteins PD-1-Ig/PD-L2-His (20 & 5 nM, respectively) and CD80-His/PD-L1-Ig (100 & 10 nM, respectively).
Recombinant Proteins: Human PD-1 (25-167) with a C-terminal human Fc domain of immunoglobulin G (Ig) epitope tag [hPD-1 (25-167)-3S-IG] and human PD-L1 (18-239) with a C-terminal His epitope tag [hPD-L1(18-239)-TVMV-His] were expressed in HEK293T cells and purified sequentially by ProteinA affinity chromatography and size exclusion chromatography. Human PD-L2-His and CD80-His was obtained through commercial sources.
Table 1 lists the IC50 values for representative examples of this disclosure measured in the PD-1/PD-L1 Homogenous Time-Resolved Fluorescence (HTRF) binding assay.
As for `CCCC[C@H]1C(=O)N(C)[C@@H](CCCC)C(=O)N[C@@H](CC(C)C)C(=O)N[C@H](C(=O)NCC(N)=O)CSCC(=O)N[C@@H](Cc2ccc(O)cc2)C(=O)N(C)[C@@H](C)C(=O)N[C@@H](CC(N)=O)C(=O)N2CCC[C@H]2CN[C@@H](CNC(=O)CC[C@@H](C)[C@H]2CC[C@H]3[C@@H]4[C@H](O)C[C@@H]5C[C@H](O)CC[C@]5(C)[C@H]4C[C@H](O)[C@]23C)C(=O)N[C@@H](CC(C)C)C(=O)N2C[C@H](O)C[C@H]2C(=O)N[C@@H](Cc2c[nH]c3ccccc23)C(=O)N[C@@H](CCNC(=O)CC[C@@H](C)[C@H]2CC[C@H]3[C@@H]4[C@H](O)C[C@@H]5C[C@H](O)CC[C@]5(C)[C@H]4C[C@H](O)[C@]23C)C(=O)N[C@@H](Cc2cn(CC(=O)Oc3ccccc3)c3ccccc23)C(=O)N1C` [Example 2007], the IC50 is 0.72 µM.

Staying with this assay, now noted: PD-L1-His 10 nM, PD-1-Ig 20 nM; read-out: HTRF IC50.
For the molecule `CCCC[C@H]1C(=O)N(C)[C@@H](CCCC)C(=O)N[C@@H](CC(C)C)C(=O)N[C@H](C(=O)NCC(N)=O)CSCC(=O)N[C@@H](Cc2ccc(O)cc2)C(=O)N(C)[C@@H](C)C(=O)N[C@@H](CC(N)=O)C(=O)N2CCC[C@H]2C(=O)N[C@@H](CNC(=O)CC[C@@H](C)[C@H]2CC[C@H]3[C@@H]4C(=O)C[C@@H]5C[C@H](O)CC[C@]5(C)[C@H]4CC(=O)[C@]23C)C(=O)N[C@@H](CC(C)C)C(=O)N2C[C@H](O)C[C@H]2C(=O)N[C@@H](Cc2c[nH]c3ccccc23)C(=O)N[C@@H](CCNC(=O)CC[C@@H](C)[C@H]2CC[C@H]3[C@@H]4C(=O)C[C@@H]5C[C@H](O)CC[C@]5(C)[C@H]4CC(=O)[C@]23C)C(=O)N[C@@H](Cc2cn(CC(=O)O)c3ccccc23)C(=O)N1C` [Example 1018] ({CH2CO}-Y[NMeA]NP[Dap](X10)L[Hyp]W[Dab](X10)[Trp(1-CH2COOH)][NMeNle][NMeNle]LCG-NH2; thioether N-14), the IC50 was found to be 0.0062 µM.
On the same count and under the same terms, as for `CCCC[C@H]1C(=O)N(C)[C@@H](CCCC)C(=O)N[C@@H](CC(C)C)C(=O)N[C@H](C(=O)NCC(N)=O)CSCC(=O)N[C@@H](Cc2ccc(O)cc2)C(=O)N(C)[C@@H](C)C(=O)N[C@@H](CC(N)=O)C(=O)N2CCC[C@H]2C(=O)N[C@@H](CNC(=O)CC[C@@H](C)[C@H]2CC[C@H]3[C@@H]4CC(=O)[C@@H]5CC(=O)CC[C@]5(C)[C@H]4CC[C@]23C)C(=O)N[C@@H](CC(C)C)C(=O)N2C[C@H](O)C[C@H]2C(=O)N[C@@H](Cc2c[nH]c3ccccc23)C(=O)N[C@@H](CCNC(=O)CC[C@@H](C)[C@H]2CC[C@H]3[C@@H]4CC(=O)[C@@H]5CC(=O)CC[C@]5(C)[C@H]4CC[C@]23C)C(=O)N[C@@H](Cc2cn(CC(=O)O)c3ccccc23)C(=O)N1C` [Example 1019] ({CH2CO}-Y[NMeA]NP[Dap](X16)L[Hyp]W[Dab](X16)[Trp(1-CH2COOH)][NMeNle][NMeNle]LCG-NH2; thioether N-14), the figure is 0.013 µM.
`CCCC[C@H]1C(=O)N(C)[C@@H](CCCC)C(=O)N[C@@H](CC(C)C)C(=O)N[C@H](C(=O)NCC(N)=O)CSCC(=O)N[C@@H](Cc2ccc(O)cc2)C(=O)N(C)[C@@H](C)C(=O)N[C@@H](CC(N)=O)C(=O)N2CCC[C@H]2C(=O)N[C@@H](CNC(=O)CC[C@@H](C)[C@H]2CC[C@H]3[C@@H]4[C@H](O)C[C@@H]5C[C@H](O)CC[C@]5(C)[C@H]4CC[C@]23C)C(=O)N[C@@H](CC(C)C)C(=O)N2C[C@H](O)C[C@H]2C(=O)N[C@@H](Cc2c[nH]c3ccccc23)C(=O)N[C@@H](CCNC(=O)CC[C@@H](C)[C@H]2CC[C@H]3[C@@H]4[C@H](O)C[C@@H]5C[C@H](O)CC[C@]5(C)[C@H]4CC[C@]23C)C(=O)N[C@@H](Cc2cn(CC(=O)OCC)c3ccccc23)C(=O)N1C` [Example 2001] ({CH2CO}-Y[NMeA]NP[Dap](Chenodeoxycholyl)L[Hyp]W[Dab](Chenodeoxycholyl)[X31][NMeNle][NMeNle]LCG-NH2; thioether N-14): the IC50 amounted to 0.22 µM.
`CCCC[C@H]1C(=O)N(C)[C@@H](CCCC)C(=O)N[C@@H](CC(C)C)C(=O)N[C@H](C(=O)NCC(N)=O)CSCC(=O)N[C@@H](Cc2ccc(O)cc2)C(=O)N(C)[C@@H](C)C(=O)N[C@@H](CC(N)=O)C(=O)N2CCC[C@H]2C(=O)N[C@@H](CNC(=O)CC[C@@H](C)[C@H]2CC[C@H]3[C@@H]4[C@H](O)C[C@@H]5C[C@H](O)CC[C@]5(C)[C@H]4C[C@H](O)[C@]23C)C(=O)N[C@@H](CC(C)C)C(=O)N2C[C@H](O)C[C@H]2C(=O)N[C@@H](Cc2c[nH]c3ccccc23)C(=O)N[C@@H](CCNC(=O)CC[C@@H](C)[C@H]2CC[C@H]3[C@H]4C(C[C@H](O)[C@]23C)[C@@]2(C)CC[C@@H](O)C[C@H]2C[C@H]4O)C(=O)N[C@@H](Cc2cn(CC(=O)NCC(C)C)c3ccccc23)C(=O)N1C` (stereo partly drawn) [Example 2002] ({CH2CO}-Y[NMeA]NP[Dap](Cholyl)L[Hyp]W[Dab](X14)[X13][NMeNle][NMeNle]LCG-NH2; thioether N-14): the IC50 was determined as 3.3 µM.
Turning to `CCCC[C@H]1C(=O)N(C)[C@@H](CCCC)C(=O)N[C@@H](CC(C)C)C(=O)N[C@H](C(=O)NCC(N)=O)CSCC(=O)N[C@@H](Cc2ccc(O)cc2)C(=O)N(C)[C@@H](C)C(=O)N[C@@H](CC(N)=O)C(=O)N2CCC[C@H]2CN[C@@H](CNC(=O)CC[C@@H](C)[C@H]2CC[C@H]3[C@@H]4[C@H](O)C[C@@H]5C[C@H](O)CC[C@]5(C)[C@H]4C[C@H](O)[C@]23C)C(=O)N[C@@H](CC(C)C)C(=O)N2C[C@H](O)C[C@H]2C(=O)N[C@@H](Cc2c[nH]c3ccccc23)C(=O)N[C@@H](CCNC(=O)CC[C@@H](C)[C@H]2CC[C@H]3[C@@H]4[C@H](O)C[C@@H]5C[C@H](O)CC[C@]5(C)[C@H]4C[C@H](O)[C@]23C)C(=O)N[C@@H](Cc2cn(CC(=O)OC3CC3)c3ccccc23)C(=O)N1C` [Example 2003], the IC50 is 0.97 µM.
For `CCCC[C@H]1C(=O)N(C)[C@@H](CCCC)C(=O)N[C@@H](CC(C)C)C(=O)N[C@H](C(=O)NCC(N)=O)CSCC(=O)N[C@@H](Cc2ccc(O)cc2)C(=O)N(C)[C@@H](C)C(=O)N[C@@H](CC(N)=O)C(=O)N2CCC[C@H]2CN[C@@H](CNC(=O)CC[C@@H](C)[C@H]2CC[C@H]3[C@@H]4[C@H](O)C[C@@H]5C[C@H](O)CC[C@]5(C)[C@H]4C[C@H](O)[C@]23C)C(=O)N[C@@H](CC(C)C)C(=O)N2C[C@H](O)C[C@H]2C(=O)N[C@@H](Cc2c[nH]c3ccccc23)C(=O)N[C@@H](CCNC(=O)CC[C@@H](C)[C@H]2CC[C@H]3[C@@H]4[C@H](O)C[C@@H]5C[C@H](O)CC[C@]5(C)[C@H]4C[C@H](O)[C@]23C)C(=O)N[C@@H](Cc2cn(CC(=O)OCCCO)c3ccccc23)C(=O)N1C` [Example 2004], the IC50 is 0.35 µM.
In the case of `CCCC[C@H]1C(=O)N(C)[C@@H](CCCC)C(=O)N[C@@H](CC(C)C)C(=O)N[C@H](C(=O)NCC(N)=O)CSCC(=O)N[C@@H](Cc2ccc(O)cc2)C(=O)N(C)[C@@H](C)C(=O)N[C@@H](CC(N)=O)C(=O)N2CCC[C@H]2CN[C@@H](CNC(=O)CC[C@@H](C)[C@H]2CC[C@H]3[C@@H]4[C@H](O)C[C@@H]5C[C@H](O)CC[C@]5(C)[C@H]4C[C@H](O)[C@]23C)C(=O)N[C@@H](CC(C)C)C(=O)N2C[C@H](O)C[C@H]2C(=O)N[C@@H](Cc2c[nH]c3ccccc23)C(=O)N[C@@H](CCNC(=O)CC[C@@H](C)[C@H]2CC[C@H]3[C@@H]4[C@H](O)C[C@@H]5C[C@H](O)CC[C@]5(C)[C@H]4C[C@H](O)[C@]23C)C(=O)N[C@@H](Cc2cn(CC(=O)OCCO)c3ccccc23)C(=O)N1C` [Example 2005], the concentration for half-maximal inhibition (IC50) worked out at 0.21 µM.
For `CCCC[C@H]1C(=O)N(C)[C@@H](CCCC)C(=O)N[C@@H](CC(C)C)C(=O)N[C@H](C(=O)NCC(N)=O)CSCC(=O)N[C@@H](Cc2ccc(O)cc2)C(=O)N(C)[C@@H](C)C(=O)N[C@@H](CC(N)=O)C(=O)N2CCC[C@H]2CN[C@@H](CNC(=O)CC[C@@H](C)[C@H]2CC[C@H]3[C@@H]4[C@H](O)C[C@@H]5C[C@H](O)CC[C@]5(C)[C@H]4C[C@H](O)[C@]23C)C(=O)N[C@@H](CC(C)C)C(=O)N2C[C@H](O)C[C@H]2C(=O)N[C@@H](Cc2c[nH]c3ccccc23)C(=O)N[C@@H](CCNC(=O)CC[C@@H](C)[C@H]2CC[C@H]3[C@@H]4[C@H](O)C[C@@H]5C[C@H](O)CC[C@]5(C)[C@H]4C[C@H](O)[C@]23C)C(=O)N[C@@H](Cc2cn(CC(=O)OCCOCCO)c3ccccc23)C(=O)N1C` [Example 2006], the IC50 worked out at 0.2 µM.
